Laboratory results taken from US12077503B2, “Substituted cyclic amides and their use as herbicides” (FMC CORPORATION, priority 2015, dated 2024).

Experiments:
Type in all cases: in vivo
[1] = test system: Kochia (Kochia scoparia); assay: Test A preemergence; settings: for Plant response rating, Kochia: 125 g ai/ha
Description: (§1) Seeds of plant species selected from barnyardgrass (Echinochloa crus-galli), Kochia (Kochia scoparia), ragweed (common ragweed, Ambrosia elatior), ryegrass, Italian (Italian ryegrass, Lolium multiflorum), crabgrass, large (Digitaria sanguinalis), giant foxtail (Setaria faberii), green foxtail (Setaria viridis), morningglory (Ipomoea spp.), pigweed (Amaranthus retroflexus), velvetleaf (Abutilon theophrasti), wheat (Triticum aestivum), and corn (Zea mays) were planted into a blend of loam soil and sand and treated preemergence with a directed soil spray using test chemicals formulated in anon-phytotoxic solvent mixture which included a surfactant.
(§2) At the same time, plants selected from these crop and weed species and also blackgrass (Alopecurus myosuroides), and Galium (catchweed bedstraw, Galium aparine) were planted in pots containing the same blend of loam soil and sand and treated with postemergence applications of test chemicals formulated in the same manner. Plants ranged in height from 2 to 10 cm and were in the one- to two-leaf stage for the postemergence treatment. Treated plants and untreated controls were maintained in a greenhouse for approximately 10 d, after which time all treated plants were compared to untreated controls and visually evaluated for injury. Plant response ratings, summarized in Table A, are based on a 0 to 100 scale where 0 is no effect and 100 is complete control. A dash (-) response means no test result.

[2] = test system: barnyardgrass (Echinochloa crus-galli); assay: Test A preemergence; settings: for Plant response rating, Barnyardgrass: 125 g ai/ha
Description: as §1, §2

[3] = test system: giant foxtail (Setaria faberii); assay: Test A preemergence; settings: for Plant response rating, Foxtail, Giant: 125 g ai/ha
Description: as §1, §2

[4] = test system: pigweed (Amaranthus retroflexus); assay: Test A preemergence; settings: for Plant response rating, Pigweed: 125 g ai/ha
Description: as §1, §2

[5] = test system: ragweed (common ragweed, Ambrosia elatior); assay: Test A preemergence; settings: for Plant response rating, Ragweed: 125 g ai/ha
Description: as §1, §2

[6] = test system: ryegrass, Italian (Italian ryegrass, Lolium multiflorum); assay: Test A preemergence; settings: for Plant response rating, Ryegrass, Italian: 125 g ai/ha
Description: as §1, §2

[7] = test system: Galium (catchweed bedstraw, Galium aparine); assay: Test A postemergence
Description: as §1, §2

[8] = test system: Kochia (Kochia scoparia); assay: Test A postemergence
Description: as §1, §2

[9] = test system: barnyardgrass (Echinochloa crus-galli); assay: Test A postemergence
Description: as §1, §2

[10] = test system: blackgrass (Alopecurus myosuroides); assay: Test A postemergence
Description: as §1, §2

[11] = test system: corn (Zea mays); assay: Test A postemergence
Description: as §1, §2

[12] = test system: giant foxtail (Setaria faberii); assay: Test A postemergence
Description: as §1, §2

[13] = test system: pigweed (Amaranthus retroflexus); assay: Test A postemergence
Description: as §1, §2

[14] = test system: ragweed (common ragweed, Ambrosia elatior); assay: Test A postemergence
Description: as §1, §2

[15] = test system: ryegrass, Italian (Italian ryegrass, Lolium multiflorum); assay: Test A postemergence
Description: as §1, §2

[16] = test system: wheat (Triticum aestivum); assay: Test A postemergence
Description: as §1, §2

[17] = test system: barnyardgrass (Echinochloa crus-galli); assay: Test B flooded paddy test; settings: Flood, 250 g ai/ha; 0 to 100 scale where 0 is no effect and 100 is complete control; 13 to 15 d
Description: (§3) Plant species in the flooded paddy test selected from rice (Oryra sativa), sedge, umbrella (small-flower umbrella sedge, Cyperus difformis), ducksalad (Heteranthera limosa), and barnyardgrass (Echinochloa crus-galli) were grown to the 2-leaf stage for testing. At time of treatment, test pots were flooded to 3 cm above the soil surface, treated by application of test compounds directly to the paddy water, and then maintained at that water depth for the duration of the test. Treated plants and controls were maintained in a greenhouse for 13 to 15 d, after which time all species were compared to controls and visually evaluated. Plant response ratings, summarized in Table B, are based on a scale of 0 to 100 where 0 is no effect and 100 is complete control. A dash (-) response means no test result.

[18] = test system: ducksalad (Heteranthera limosa); assay: Test B flooded paddy test; settings: Flood, 250 g ai/ha; 0 to 100 scale where 0 is no effect and 100 is complete control; 13 to 15 d
Description: as §3

[19] = test system: rice (Oryra sativa); assay: Test B flooded paddy test; settings: Flood, 250 g ai/ha; 0 to 100 scale where 0 is no effect and 100 is complete control; 13 to 15 d
Description: as §3

[20] = test system: sedge, umbrella (small-flower umbrella sedge, Cyperus difformis); assay: Test B flooded paddy test; settings: Flood, 250 g ai/ha; 0 to 100 scale where 0 is no effect and 100 is complete control; 13 to 15 d
Description: as §3

[21] = Preemergence, visual injury after approximately 10 d, 0 to 100 scale where 0 is no effect and 100 is complete control
[22] = Preemergence, 500 g ai/ha, visual injury approx. 10 d
[23] = 125 g ai/ha, postemergence, visual rating after approx. 10 d, 0 to 100 scale (0 no effect, 100 complete control)
[24] = Postemergence, 500 g ai/ha, 0 to 100 scale where 0 is no effect and 100 is complete control
[25] = preemergence, 0 to 100 scale (0 no effect, 100 complete control)
[26] = Preemergence, 500 g ai/ha, 0 is no effect, 100 is complete control
[27] = 500 g ai/ha, postemergence, 0 to 100 scale, 0 no effect, 100 complete control
[28] = Postemergence, 125 g ai/ha, visual injury, 0 to 100 scale (0 no effect, 100 complete control), approx. 10 d

SMILES: O=C1NCC(c2cc(C(F)(F)F)cc(C(F)(F)F)c2)C1C(=O)Nc1cccc(F)c1F (stereo not drawn) [Compound 588]
- Plant response rating, Kochia [1, 21]: 0
- Kochia plant response rating (0 to 100 scale, 0 is no effect, 100 is complete control) [1, 22]: 0
- Plant response rating, Barnyardgrass [2, 21]: 90
- Barnyardgrass plant response rating (0 to 100 scale, 0 is no effect, 100 is complete control) [2, 22]: 90
- Plant response rating, Foxtail, Giant [3, 21]: 90
- Foxtail, Giant plant response rating (0 to 100 scale, 0 is no effect, 100 is complete control) [3, 22]: 90
- Plant response rating, Pigweed [4, 21]: 0
- Pigweed plant response rating (0 to 100 scale, 0 is no effect, 100 is complete control) [4, 22]: 0
- Plant response rating, Ragweed [5, 21]: 0
- Ragweed plant response rating (0 to 100 scale, 0 is no effect, 100 is complete control) [5, 22]: 0
- Plant response rating, Ryegrass, Italian [6, 21]: 80
- Ryegrass, Italian plant response rating (0 to 100 scale, 0 is no effect, 100 is complete control) [6, 22]: 50
- Plant response rating, Galium [7, 23]: 0
- Plant response rating, Galium [7, 24]: 30
- Plant response rating, Kochia [8, 23]: 0
- Plant response rating, Kochia [8, 24]: 70
- Plant response rating, Barnyardgrass [9, 23]: 80
- Plant response rating, Barnyardgrass [9, 24]: 80
- Plant response rating, Blackgrass [10, 23]: 20
- Plant response rating, Blackgrass [10, 24]: 50
- Plant response rating, Corn [11, 23]: 0
- Plant response rating, Corn [11, 24]: 70
- Plant response rating, Foxtail, Giant [12, 23]: 80
- Plant response rating, Foxtail, Giant [12, 24]: 80
- Plant response rating, Pigweed [13, 23]: 20
- Plant response rating, Pigweed [13, 24]: 40
- Plant response rating, Ragweed [14, 23]: 0
- Plant response rating, Ragweed [14, 24]: 50
- Plant response rating, Ryegrass, Italian [15, 23]: 0
- Plant response rating, Ryegrass, Italian [15, 24]: 50
- Plant response rating, Wheat [16, 23]: 0
- Plant response rating, Wheat [16, 24]: 40
- Plant response rating, Barnyardgrass [17]: 30
- Plant response rating, Ducksalad [18]: 70
- Plant response rating, Rice [19]: 30
- Plant response rating, Sedge, Umbrella [20]: 0

SMILES: O=C1NCC(c2ccccc2-c2ccccc2)C1C(=O)Nc1cccc(F)c1F (racemic) [Compound 379]
- Plant response rating, Kochia [1, 25]: 0
- Kochia plant response rating (0 to 100 scale) [1, 26]: 0
- Plant response rating, Barnyardgrass [2, 25]: 0
- Barnyardgrass plant response rating (0 to 100 scale) [2, 26]: 30
- Plant response rating, Foxtail, Giant [3, 25]: 0
- Foxtail, Giant plant response rating (0 to 100 scale) [3, 26]: 40
- Plant response rating, Pigweed [4, 25]: 0
- Pigweed plant response rating (0 to 100 scale) [4, 26]: 0
- Plant response rating, Ragweed [5, 25]: 0
- Ragweed plant response rating (0 to 100 scale) [5, 26]: 0
- Plant response rating, Ryegrass, Italian [6, 25]: 0
- Ryegrass, Italian plant response rating (0 to 100 scale) [6, 26]: 0
- Plant response rating, Galium [7, 27]: 0
- Plant response rating, Galium [7, 28]: 0
- Plant response rating, Kochia [8, 27]: 0
- Plant response rating, Kochia [8, 28]: 0
- Plant response rating, Barnyardgrass [9, 27]: 50
- Plant response rating, Barnyardgrass [9, 28]: 0
- Plant response rating, Blackgrass [10, 27]: 0
- Plant response rating, Blackgrass [10, 28]: 0
- Plant response rating, Corn [11, 27]: 0
- Plant response rating, Corn [11, 28]: 0
- Plant response rating, Foxtail, Giant [12, 27]: 20
- Plant response rating, Foxtail, Giant [12, 28]: 0
- Plant response rating, Pigweed [13, 27]: 0
- Plant response rating, Pigweed [13, 28]: 0
- Plant response rating, Ragweed [14, 27]: 0
- Plant response rating, Ragweed [14, 28]: 0
- Plant response rating, Ryegrass, Italian [15, 27]: 0
- Plant response rating, Ryegrass, Italian [15, 28]: 0
- Plant response rating, Wheat [16, 27]: 0
- Plant response rating, Wheat [16, 28]: 0
- Plant response rating, Barnyardgrass [17]: 0
- Plant response rating, Ducksalad [18]: 0
- Plant response rating, Rice [19]: 0
- Plant response rating, Sedge, Umbrella [20]: 0
